Values quoted from earlier work in patent US6962905B1, “Pharmaceutical formulation comprising a low molecular weight thrombin inhibitor and its prodrug” (AstraZeneca AB, priority 1999, dated 2005).

Test system: DVT after total hip/knee replacement or major surgery
Settings: background statements from literature

Compound | effect on incidence of DVT after surgery
hirudin | superior to unfractionated heparin and LMWH
CC(=O)CC(c1ccccc1)c1c(O)c2ccccc2oc1=O (stereo not drawn) [warfarin] | effective in reducing DVT
CC(=O)Oc1ccccc1C(=O)O [aspirin] | limited efficacy
